Earlier results as cited in PMC10360060, “Electroosmotic Perfusion, External Microdialysis: Simulation and Experiment” (ACS Chemical Neuroscience, 2023).
Like-named read-outs stand apart in the source and are kept apart here.

Tests used:
[1] = system: insulin regulated aminopeptidase (IRAP); settings: perfusion of inhibitor in rat neocortex in vivo, online capillary LC-MS2
Description: Following our discovery that brain tissue has a significant ζ-potential,[36] we learned how to use this property of brain tissue to infuse solutes into brain and organotypic hippocampal slice cultures (OHSCs) using controlled electrical current[37],[38] and to infuse substrates of known ectoenzymes and determine information about these enzymes in OHSCs[39]−[43] and in vivo.[44] For the in vivo work, direct laser writing by two-photon polymerization was used to manufacture a device (Supporting Information, section S3). A pointed, narrow capillary adjacent to a microdialysis probe was the source ...

[2] = saline solution, parameter used in simulations, ref Li and Carr, Scheibel, Häckel et al.[65]−[67]
Description: Table 1 List of Parameters Used in Simulations | column: magnitude

[3] = 37 °C (body temperature, tissue)

Row | Compound | inhibition of YGGFL hydrolysis [1] | Diffusion coefficients ([2]; 22 °C (lab temperature)) | Diffusion coefficients [2, 3]
1 | CCOC(=O)C1=C(NC(C)=O)Oc2cc(O)ccc2C1c1cccnc1 (centres unmarked) [HFI-419] | dose-dependent inhibition |  | 
2 | GGFL [hydrolysis product of YGGFL] |  | 5.0 × 10^–10 m^2/s | 6.5 × 10^–10 m^2/s
3 | YGGFL [leucine enkephalin, natural neuropeptide substrate infused through tissue] |  | 4.2 × 10^–10 m^2/s | 5.5 × 10^–10 m^2/s
